According to US20120301895A1, “METHODS OF MODULATING BINDING OF SON OF SEVENLESS TO PHOSPHATIDIC ACID AND IDENTIFYING COMPOUNDS THAT MODULATE SUCH BINDING” (THE RESEARCH FOUNDATION OF STATE UNIVERSITY OF NEW YORK, priority 2007, published 2012):

Experiments:
tumor growth = details: Bai et al. 2003; cited from earlier work
[1] = test system: MDA-MB-231 human breast cancer cells; details: Wolf et al. 2007; cited from earlier work
[2] = mouse models, high concentrations; cited from earlier work
[3] = test system: PLD activity in T24 cells; assay: In vivo PLD activity in T24 bladder cancer cells; type: cell-based, human; details: honokiol 20 μM, 4 hr
Experimental: In FIG. 17A, T24 and Calu1 cells (obtained from the American Type Culture Collection) were plated in DMEM containing 10% serum for 48 hr and then shifted to either 10% serum or 0.5% serum overnight as indicated. Honokiol (20 μM) or control ethanol was then added for 4 hr as indicated. [^3H]-Myristate was added with the honokiol. After 4 hr, BtOH (0.7%) was added for 20 min, at which time the cells were harvested and the level of phosphatidyl-BtOH (P-Bt) was determined as in FIGS. 12A-C. The experiments shown are representative of at least two independent experiments. In FIG. 17B, T24 and Calu-1 cells were plated in DMEM with 10% serum for 48 hr then changed to DMEM containing either 10% or 0.5% serum overnight as indicated. […]
For in vivo PLD activity, cells were plated in 60 mm culture dishes in DMEM with 10% serum at a density that would allow them to grow to about 80% confluence after 2 days, then cells were shifted to DMEM containing 0.5% or 10% serum as indicated in the figure legends overnight. […] Briefly, PLD activity was measured by the release of [methyl-^3H] choline from [choline-methyl-^3H]dipalmitoyl-phosphatidylcholine. […] Free [methyl-^3H] choline was separated from precipitated lipids and proteins by centrifugation and was analyzed by liquid scintillation counting. […]

[4] = test system: human prostate cancer cells; details: Shigemura et al. 2007; cited from earlier work
[5] = test system: PLD activity in 786-O cells; assay: PLD activity in 786-O cells; type: cell-based, human; details: no activated Ras
Text: The PLD activity elevated in response to stress in the MDA-MB-231 cells was dependent on Ras in the MDA-MB-231, and also in the Calu1, and T24 cancer cells (Shi et al., “Elevated Phospholipase D Activity in Human Cancer Cells with Activating Ras Mutations Provides Survival Signal,” Cancer Lett. 258:268-75 (2007), which is hereby incorporated by reference in its entirety). […] This is interesting in that there is an activated K-Ras gene in the MDA-MB-231 cells. Similarly, there are activating mutations to Ras genes in both the Calu1 and T24 cells. It was recently reported that the PLD activity in the T24 cells, where H-Ras is activated, is dependent on the expression of H-Ras; and the PLD activity in the Calu-1 cells, where K-Ras is activated, is dependent on the expression of K-Ras (Shi et al., “Elevated Phospholipase D Activity in Human Cancer Cells with Activating Ras Mutations Provides Survival Signal,” Cancer Lett. 258:268-75 (2007), which is hereby incorporated by reference in its entirety). […] However, it is also possible that the increased GTP bound Ras represents activation of the non-mutated Ras—either the Ras protein encoded by the non-mutated wild type allele or other Ras isoforms. In the case of the MDA-MD-231 that would mean that H-Ras was being activated or the wild type K-Ras encoded by the non-mutant allele. […]

Compound: C=CCc1ccc(O)c(-c2ccc(O)c(CC=C)c2)c1 [honokiol, Honokiol]
- tumor growth in mouse xenografts (tumor growth): blocked tumor growth
- growth of MDA-MB-231 cells in mouse xenograft [1]: suppress the growth
- tolerability [2]: well tolerated
- stress-induced PLD activity ([3]; 0.5% serum): suppressed
- PLD activity observed in the presence of serum ([3]; 10% serum): little effect
- bone metastatic growth of human prostate cancer cells [4]: inhibit the bone metastatic growth
- PLD activity [5]: blocks
